For data set [1], the system named is human airway epithelial cells (HAE). It is filed as cell-based. As to conditions: for Ad gene transfer: Ad-GFP MOI=250 combined 1:1 with reagent, apical 2 hours, imaged 5 days, LPC 0.1%, EGTA 250 mM, doxorubicin 5 μM, NaCl 3.6%, Infasurf; for Ad-GFP gene transfer at 1-7% tonicities: Ad-GFP MOI=250, apical 2 h, 5 days.
For data set [2] the test system is unchanged. In words: Transepithelial electrical resistance (TEER) of HAE after apical reagent. It is filed as cell-based. The settings on record: apical 5 minutes; LPC 0.1%, EGTA 250 mM, doxorubicin 5 μM, NaCl 3.6%, Infasurf 35 mg/ml. The protocol: The University of Iowa In Vitro Models and Cell Culture Core cultured and maintained human airway epithelial cells (HAE) as previously described (33). Briefly, following enzymatic disassociation of trachea and bronchus epithelia, the cells were seeded onto collagen-coated, polycarbonate transwell inserts (0.4 μm pore size; surface area=0.33 cm^2; Corning Costar, Cambridge, MA). HAE were submerged in Ultroser G (USG) medium for 24 hours (37° C. and 5% CO2) at which point the apical media is removed to encourage polarization and differentiation at an air-liquid interface. Transepithelial electrical resistance was measured using an Ohmmeter […]
Disrupting the epithelial tight junctions allows Ad5-based viral vectors access to their basolaterally localized coxsackie and adenovirus receptor (CXADR) (12). Unless otherwise specified, these studies use the Ad5 serotype. […] First, reagents were applied to the apical surface of HAE for 5 minutes and then TEER was measured using an ohmmeter. […] In separate cultures, Ad-GFP (MOI=250) in 50 μl of DMEM combined 1:1 with the test reagents was applied to the apical surface for 2 hours. 5 days post-treatment, cells were imaged by fluorescence microscopy.

Data set [3] in a line: Osmolarity and pH of the solutions. Type of data set: physicochemical.
In data set [4] the test system is human airway epithelia (HAE). The experiment in a line: Endosomal acidification inhibitors on NaCl enhanced Ad5-GFP transduction. Type of data set: cell-based. The settings on record: pre-treated 2 h with CQ 200 μM or bafilomycin A1 1 μM; Ad5-GFP MOI=250 with NaCl 3.6%. The source says: GFP expression was quantified by flow cytometry 5 days later. […] GFP was quantified 5 days post-transduction.

For the compound `O=C(O)CN(CCOCCOCCN(CC(=O)O)CC(=O)O)CC(=O)O` [EGTA], in data set [1], the Ad gene transfer entry is given as “increased gene transfer”. For the same compound, the “transepithelial electrical resistance (TEER)” value in data set [2] is given as “reduced TEER”.

As to `[Cl-].[K+]` [KCl, potassium chloride], the Osmolarity in data set [3] (1% solution) is 268 mOsmol/l; in data set [3] (2% solution), 537 mOsmol/l; in data set [3] (3% solution) it was 805 mOsmol/l; in data set [3] (3.6% solution), 970 mOsmol/l; in data set [3] (4% solution), 1073 mOsmol/l; in data set [3] (5% solution) it was 1341 mOsmol/l. Also, the Osmolarity is recorded as 1610 mOsmol/l in data set [3] (6% solution) and 1878 mOsmol/l in data set [3] (7% solution). The “Ad-GFP gene transfer at 1-7% tonicities” value in data set [1] is “Dose-dependent increases”.

Turning to `O=C([O-])[C@H](O)[C@@H](O)[C@H](O)[C@H](O)CO.[Na+]` [NaGluconate, sodium gluconate], the Osmolarity in data set [3] (3.6% solution) was 120 mOsmol/l.

For `CO/C1=C\C(C)=C\[C@@H](C)[C@@H](O)[C@@H](C)C/C(C)=C/C=C/[C@H](OC)[C@@H]([C@@H](C)[C@@H](O)[C@H](C)[C@@]2(O)C[C@@H](O)[C@H](C)[C@@H](C(C)C)O2)OC1=O` [bafilomycin A1], the “NaCl enhanced Ad5-GFP transduction after inhibitor” value in data set [4] is “significantly decreased”.

Regarding `CCN(CC)CCCC(C)Nc1ccnc2cc(Cl)ccc12` (stereo not shown) [chloroquine], the “NaCl enhanced Ad5-GFP transduction after inhibitor” value in data set [4] was “significantly decreased”.

Take `COc1cccc2c1C(=O)c1c(O)c3c(c(O)c1C2=O)C[C@@](O)(C(=O)CO)C[C@@H]3O[C@H]1C[C@H](N)[C@H](O)[C@H](C)O1` [doxorubicin]: the Ad gene transfer result in data set [1] is on record as “did not enhance Ad gene transfer”. In data set [2], the “transepithelial electrical resistance (TEER)” value is listed as “decreased TEER”.

For the compound `OC[C@@H](O)[C@@H](O)[C@H](O)[C@H](O)CO` [mannitol], the Osmolarity in data set [3] (1% solution) amounted to 55 mOsmol/l; in data set [3] (2% solution), 110 mOsmol/l; in data set [3] (3% solution), 170 mOsmol/l; in data set [3] (4% solution), 220 mOsmol/l; in data set [3] (5% solution), 270 mOsmol/l; in data set [3] (6% solution) it was 330 mOsmol/l. In data set [3] (7% solution), the Osmolarity was found to be 380 mOsmol/l. The “Ad-GFP gene transfer at 1-7% tonicities” value in data set [1] was “did not enhance gene transfer”.

Consider “N-methyl-d-glucamine gluconate [NMDG gluconate]”, for which the Osmolarity was 342 mOsmol/l in data set [3] (1% solution); 684 mOsmol/l in data set [3] (2% solution); 1027 mOsmol/l in data set [3] (3% solution); 1369 mOsmol/l in data set [3] (4% solution); 1711 mOsmol/l in data set [3] (5% solution); 2053 mOsmol/l in data set [3] (6% solution). Moreover, the Osmolarity in data set [3] (7% solution) stood at 3693 mOsmol/l. Besides, in data set [1], the “Ad-GFP gene transfer at 1-7% tonicities” value is “Dose-dependent increases”.

Regarding lysophosphatidylcholine [LPC], the Ad gene transfer result in data set [1] was “increased gene transfer”. For the same compound, in data set [2], the “transepithelial electrical resistance (TEER)” value is “reduced TEER”.

(Values after patent publication US20250144247A1, “FORMULATIONS TO ENHANCE THE DELIVERY OF GENE THERAPY VECTORS” (priority 2023, published 2025).)
